Experimental data published in patent US20240139190A1, “NOVEL ANTIPARASITIC COMPOUNDS AND METHODS” (The Board of Regents of The University of Texas System, priority 2019, published 2024).
Entries after “also recorded” stand apart in the source; their conditions may differ. Where two headings read alike, the source gives them in different places.

How the values were obtained:
[1] = tested on: L. amazonensis axenic amastigotes; assay: alamarBlue viability / concentration-response assay, axenic amastigotes; type: cell-based, Leishmania amazonensis
Experimental: (§1) Leishmania amazonensis axenic amastigotes (100 μL, 2×10^6 cells/mL) were added to 96-multiwell plates containing 100 μL of amastigote culture medium with an appropriate compound dilution series. 0.1% DMSO (no drug) served as a positive control (100%), and 5 μM amphotericin B served as a negative growth control (0%). Only internal wells were used to minimize edge effects from evaporation. Axenic amastigotes were incubated at 32° C. with a compound/drug for 72 h prior to measurement. Similarly, the cytotoxicity of each compound was determined against RAW 264.7 cells and HepG2 cell lines, following 72 h incubation at 37° C. (promastigotes at 26° C.).
(§2) 10% alamarBlue® (Thermo Fisher Scientific) was used to measure the growth of both parasite and mammalian cells. Conversion from a blue oxidized state to a pink reduced state was assessed visually at 6 hr. The fluorescence signal was measured with a BioTek Synergy H1 plate reader (530 nm excitation, 570 nm emission). For bioluminescence assays using L. amazonensisluc, relative luminescence units (RLU) were measured using Britelite Plus (PerkinElmer, USA). Luminescence produced by this luciferase reaction is proportional to the amount of luciferase-expressing, viable L. amazonensisluc. Following five-minute incubation at room temperature, the luminescence was measured with a BioTek Synergy H1 plate reader.
All experiments were conducted as three technical triplicates on the same plate, with at least three independent biological repeats of each plate performed. For all assays, percent growth was expressed as a proportion of the untreated (positive) control (i.e. 100%) and plotted against drug/compound concentration. The concentration was then log10 transformed and EC50 values were determined using nonlinear regression (sigmoidal dose-response/variable slope equation) in GraphPad Prism v5.0 (GraphPad Software, Inc., San Diego, CA).
To identify antileishmanial compounds, a microplate-based alamarBlue® assay was used to quickly triage the 400 drug-like compounds available in the MMV Pathogen Box collection. […] A three-step process was used to screen the Pathogen Box: 1) identify hits against axenic amastigotes, 2) confirm the inhibitory concentrations of these hits against axenic amastigotes, 3) evaluate hits for potency against intracellular parasites using fluorescence and bioluminescence-based intracellular assays. The MMV Pathogen Box resource was tested at two concentrations (5 μM and 1 μM, 72 h endpoint) on axenic amastigotes.
Hits were defined as compounds that, at a concentration of 1 μM, decreased the relative fluorescence intensity signal to ≤70% of that produced by parasites incubated in vehicle (0.06% DMSO) only (FIG. 9).

Cytotoxicity, alamarBlue = type: cell-based; details: mouse, RAW 264.7 macrophage cells, read-out: CC50^72 h cytotoxicity (macrophage / mammalian cells)
Experimental: as §1
as §2, with “reader. […]” for “reader.”

[2] = tested on: intracellular L. amazonensis amastigotes; assay: Intramacrophage bioluminescence assay with luciferase-expressing L. amazonensis; type: cell-based, Leishmania amazonensis
Experimental: Intracellular EC50s were estimated with L. amazonensisluc parasites. Briefly, RAW 264.7 cells or BM primary Mϕs were starved overnight, then infected with metacyclic promastigotes at a Multiplicity of Infection (MOI) of 15 and incubated for another 24 h at 37° C. The plates containing infected RAW 264.7 cells/BM primary M4s were washed five times with serum-free DMEM. Serially diluted compounds were added, and plates were incubated at 37° C. for 72 hrs. Bioluminescence signal was measured as described above.
RAW 264.7 cells were used to perform a bioluminescence assay with transgenic luciferase-expressing L. amazonensis (FIG. 1C).

[3] = target: purified L. tarentolae tubulin (Leishmania tarentolae, UniProt A0A640KCM0+A0A640KQN0); assay: Chemical cross-linking competition with SW223022 probe; type: binding; details: 100-fold excess of competitor
[4] = tested on: blood-stage P. falciparum (3D7 strain); assay: Malaria SYBR green I fluorescence (MSF) assay; type: cell-based, Plasmodium falciparum; details: 3D7 strain
Experimental: For other parasites, L. donovani, strain MHOM/SD/62/1S-C12D, was grown as previously described. Plasmodium falciparum parasites of the 3D7 strain were cultured in RPMI 1640 medium supplemented with 37.5 mM HEPES, 10 mM D-glucose, 2 mM L-glutamine, 100 μM hypoxanthine, 25 μg/mL gentamicin, 4% (v/v) human serum and 0.25% (v/v) Albumax II, at a 2% haematocrit in an atmosphere of 1% 02, 3% CO2 and 96% N2. Staging and parasitemia of the in vitro culture were assessed by light microscopy of Giemsa-stained thin blood smears.
Compounds were tested against the blood-stage Trypanosoma brucei (48 hr endpoint) and intra-erythrocytic asexual stages Plasmodium falciparum (3D7) using CellTiter-Glo® luminescent and Malaria SYBR green I fluorescence (MSF) assays, respectively. Similar methodology will be used for future experiments.
MMV676477 was tested against several other parasites: the axenic amastigotes of Leishmania donovani and Leishmania tarentolae, blood-stage Plasmodium falciparum, and Trypanosoma brucei. The compound's activity was measured using alamarBlue®, Malaria SYBR green I fluorescence (MSF) and CellTiter-Glo® luminescent assays. […] In addition, MMV676477 has also been recently reported as having potent activity against Neospora caninum, Cryptosporidium parvum, Toxoplasma gondii, and Entamoeba histolytica.

[5] = tested on: intracellular L. amazonensis amastigotes; assay: Intracellular washout assay (LD50); type: cell-based, Leishmania amazonensis
Experimental: Intracellular LD50s were measured. Briefly, RAW 264.7 cells were seeded to 96-multiwell plates at a density of 2×10^5 cells/mL (200 μL) and starved overnight at 37° C. The cells were infected with metacyclic promastigotes at a Multiplicity of Infection (MOI) of 15 and incubated for another 24 h at 37° C. The plates containing infected RAW 264.7 cells/BM primary M #s were washed five times with serum-free DMEM. Serially diluted compounds were added, and plates were incubated at 37° C. for 72 hrs. Wells were washed five times with DMEM, and the RAW 264.7 cells were lysed with 100 μL of 2 mg/mL saponin in DMEM for 5 min at room temperature, and further lysis was stopped with 100% FBS. After centrifugation, 200 μL acidic promastigotes media was replaced, plates were incubated at 26° C. for 96 h. Fluorescence intensity (alamarBlue®) was measured as described above.
All routine in vitro quantification of antileishmanial drug potency is quantification of “cytostatic” potency. […] Therefore, the cytocidal action of MMV676477 was quantified by obtaining an LD50 at 72 h (a Lethal Dose that kills 50% of the bulk population of the parasites relative to untreated control) and compared it to the known cytocidal drug amphotericin. An intracellular washout assay was employed. […] The ratio of LD50:EC50 was calculated for MMV676477 and amphotericin. Lower ratios indicate that the LD50 is similar to the EC50 value, meaning that the estimated EC50 values represent killing of the parasites rather than simple growth inhibition.

[6] = tested on: L. amazonensis promastigotes and amastigotes; assay: Microscopic analysis of cell division; type: cell-based, Leishmania amazonensis; details: 48 h at EC50^72 h
Experimental: (§3) Promastigotes or amastigotes were treated with the indicated compound concentrations and allowed to adhere to poly-L-lysine coated plates. All cells were fixed with 4% paraformaldehyde and permeabilized/blocked with 0.01% Triton X-100 and 2% BSA in PBS. Promastigotes and amastigotes were incubated with mouse anti-gp46 or anti-p8, respectively at 1:50 or 1:1000 and rat anti-alpha-tubulin antibody at 1:1000. Samples were then probed with A568 anti-mouse and […] secondary antibodies (Molecular Probes). DNA was labeled with Hoescht. Samples were visualized on a Zeiss LSM 880 Inverted confocal Airyscan microscope at 63×; full Z-thicknesses through parasites were obtained. […] For microscopic analysis of mitotic arrest, at least 200 parasites were analyzed per condition per experiment after 48 hrs incubation at compounds' EC50, and the average plus standard error for three experiments was calculated. Representative images were selected from the maximal intensity projections and linearly processed in Adobe Photoshop CS6.
The molecular target of MMV676477 was investigated.

[7] = tested on: L. amazonensis promastigotes and amastigotes; assay: Tubulin intensity by confocal immunofluorescence microscopy; type: cell-based, Leishmania amazonensis; details: 24 h at EC50^72 h
Experimental: as §3
One reason why MMV676477 might affect parasite cell division is that, like paclitaxel, it might affect microtubule polymerization, either directly or indirectly. The degree to which MMV676477 affected microtubules polymerization in cells was examined. […] Centrifugation of these extracts allowed separation of insoluble polymeric (pellet) and soluble dimeric (supernatant) tubulin. […] The intensity of α-tubulin staining was examined by normalizing it to the intensity of a membrane protein (gp46 for promastigotes in FIG. 4D; p8 for amastigotes in FIG. 4E).

[8] = Leishmania amazonensis, 72 h, axenic amastigotes; read-out: EC50^72 h against L. amazonensis axenic amastigotes
[9] = Pathogen Box screen, 1 μM, 72 h

## CCc1c(C)nc(-n2nc(C)cc2NC(=O)c2ccc(F)c(Cl)c2)[nH]c1=O [SW223041, 3-Chloro-N-(1-(5-ethyl-4-methyl-6-oxo-1,6-dihydropyrimidin-2-yl)-3-methyl-1H-pyrazol-5-yl)-4-fluorobenzamide]
[1]; [8]
  EC50: 20 nM
[1]; fold vs MMV676477
  improvement of potency against L. amazonensis compared to MMV676477: four to five-fold improved potency; also recorded: about four-fold improved activity
Cytotoxicity, alamarBlue
  CC50 at 72 h: 2400 nM
[2]
  potency against L. amazonensis intracellular amastigotes relative to MMV676477: 3-4 fold
[3]
  competition with SW223022 probe (fluorescent tubulin band): almost completely absent
[4]
  potency against blood-stage P. falciparum relative to MMV676477: 3-4 fold

## C[C@]1(COc2ccc(N3CCC(Oc4ccc(OC(F)(F)F)cc4)CC3)cc2)Cn2cc([N+](=O)[O-])nc2O1 [delamanid]
[1]; [9]
  relative fluorescence intensity signal vs vehicle (hit definition): hits

## CC(C)(C)[C@H]1CC[C@H](CC2=C(O)C(=O)c3ccccc3C2=O)CC1 [buparvaquone]
[1]; [9]
  relative fluorescence intensity signal vs vehicle (hit definition): hits

## CCc1c(C)nc(-n2nc(C)cc2NC(C)=O)[nH]c1=O [SW223023, N-(1-(5-Ethyl-4-methyl-6-oxo-1,6-dihydropyrimidin-2-yl)-3-methyl-1H-pyrazol-5-yl) acetamide]
[3]
  competition with SW223022 probe (fluorescent tubulin band): No apparent competition

## CC(=O)Oc1ccccc1C(=O)Nc1ncc([N+](=O)[O-])s1 [nitazoxanide]
[1]; [9]
  relative fluorescence intensity signal vs vehicle (hit definition): hits

## C#CCOc1ccc(C(=O)c2ccc(C(=O)Nc3cc(C)nn3-c3nc(C)c(CC)c(=O)[nH]3)cc2)cc1 [SW223022, N-(1-(5-Ethyl-4-methyl-6-oxo-1,6-dihydropyrimidin-2-yl)-3-methyl-1H-pyrazol-5-yl)-4-(4-(prop-2-yn-1-yloxy)benzoyl)benzamide]
[1]; 72 h, axenic amastigotes; read-out: EC50^72 h against L. amazonensis axenic amastigotes
  EC50: 156 nM
[1]; [8]
  EC50: 160 nM

## CSc1ccccc1C(=O)Oc1cc(C)nc(-n2nc(C)cc2N)n1 [SW10]
[3]
  competition with SW223022 probe (fluorescent tubulin band): No apparent competition

## C[C@@H]1[C@H](O)[C@@H](C)/C=C/C=C/C=C/C=C/C=C/C=C/C=C/[C@H](O[C@@H]2O[C@H](C)[C@@H](O)[C@H](N)[C@@H]2O)C[C@@H]2O[C@](O)(C[C@@H](O)C[C@@H](O)[C@H](O)CC[C@@H](O)C[C@@H](O)CC(=O)O[C@H]1C)C[C@H](O)[C@H]2C(=O)O [amphotericin B]
[1]; Leishmania amazonensis; 72 h, axenic amastigotes; read-out: EC50^72 h against L. amazonensis axenic amastigotes
  EC50: 53 nM
[2]; Leishmania amazonensis, RAW264.7, 72 h, read-out: EC50^72 h against intracellular L. amazonensis amastigotes
  EC50: 77 nM
[5]; intracellular amastigotes
  LD50/EC50 ratio: 1
[5]; intracellular washout, 72 h
  LD50 72 h: 82 nM

## CCc1c(C)nc(-n2nc(C)cc2NC(=O)Nc2ccc(OC)cc2)[nH]c1=O [SW223102, 1-(1-(5-Ethyl-4-methyl-6-oxo-1,6-dihydropyrimidin-2-yl)-3-methyl-1H-pyrazol-5-yl)-3-(4-methoxyphenyl)urea]
[1]; [8]
  EC50: 2400 nM
[3]
  competition with SW223022 probe (fluorescent tubulin band): less-pronounced dimming

## CCCCCCCCCCCCCCCCOP(=O)([O-])OCC[N+](C)(C)C [miltefosine]
[6]
  percentage of L. amazonensis undergoing cell division: did not affect L. amazonensis cell division
[7]
  tubulin intensity over control (DMSO-treated): did not increase tubulin intensity

## CC(=O)OC[C@H]1O[C@@H]([S-])[C@H](OC(C)=O)[C@@H](OC(C)=O)[C@@H]1OC(C)=O.CCP(CC)CC.[Au+] [auranofin]
[1]; [9]
  relative fluorescence intensity signal vs vehicle (hit definition): hits

## CCc1c(C)nc(-n2nc(C)cc2N)[nH]c1=O [SW223075, 2-(5-amino-3-methyl-1H-pyrazol-1-yl)-5-ethyl-6-methylpyrimidin-4(3H)-one]
[1]; [8]
  EC50: 290 nM
[6]
  percentage of L. amazonensis undergoing cell division: no effect on cell division
[7]
  tubulin intensity over control (DMSO-treated): did not increase tubulin intensity
